Values quoted from earlier work, collected in patent US20210137911A1, “NOVEL CHRONOTHERAPY BASED ON CIRCADIAN RHYTHMS” (THE TRUSTEES OF THE UNIVERSITY OF PENNSYLVANIA, priority 2014, published 2021).
Positions of bridges follow the written chain, without caps; N, C: chain ends. Non-standard residues stand in square brackets, D forms with d. Residues, ends and D or L forms follow the SMILES beside them.

Details: in vivo; cited from earlier work

Structure (SMILES) | ½ Life
CCC1=C(C)c2cc3[n-]c(cc4[n-]c(cc5nc(cc1n2)C(C)=C5CC)c(C)c4CCC(=O)O)c(CCC(=O)O)c3C.[Cl-].[Cl-].[Sn+4] [Stannsoporfin] | 3.8 h
CN(N=O)C(=O)N[C@@H](C=O)[C@@H](O)[C@H](O)[C@H](O)CO [Streptozocin] | 0.0833 h
O=C1C(CC[S+]([O-])c2ccccc2)C(=O)N(c2ccccc2)N1c1ccccc1 (stereo not shown) [Sulfinpyrazone] | 4 h
CNS(=O)(=O)Cc1ccc2[nH]cc(CCN(C)C)c2c1 [Sumatriptan] | 2.5 h
Nc1c2c(nc3ccccc13)CCCC2 [Tacrine] | 2 h
CC(=O)N1N=C(c2ccc(N)cc2)c2cc3c(cc2C[C@H]1C)OCO3 [Talampanel] | 3 h
CCOc1ccccc1OCCN[C@H](C)Cc1ccc(OC)c(S(N)(=O)=O)c1 [Tamsulosin] | 5 h
CC[C@@H](c1cccc(O)c1)[C@@H](C)CN(C)C [Tapentadol] | 4 h
COc1cc([C@@H]2c3cc4c(cc3[C@@H](O[C@@H]3O[C@@H]5CO[C@@H](c6cccs6)O[C@H]5[C@H](O)[C@H]3O)[C@H]3COC(=O)[C@H]23)OCO4)cc(OC)c1O [Teniposide] | 5 h
CC(C)(C)NCC(O)c1cc(O)cc(O)c1 (stereo not shown) [Terbutaline] | 5.5 h
C[C@]12CC[C@H]3[C@@H](CCC4=CC(=O)CC[C@@]43C)[C@@H]1CC[C@@H]2O [Testosterone] | 0.166 h
O=C1CCC(N2C(=O)c3ccccc3C2=O)C(=O)N1 (stereo not shown) [Thalidomide] | 5 h
CCCC(C)C1(CC)C(=O)NC(=S)NC1=O (stereo not shown) [Thiopental] | 3 h
CC(C(=O)O)c1ccc(C(=O)c2ccccc2)s1 (stereo not shown) [Tiaprofenic acid] | 1.5 h
CC(C)(C)NC[C@H](O)COc1nsnc1N1CCOCC1 [Timolol] | 2.5 h
CCCCS(=O)(=O)N[C@@H](Cc1ccc(OCCCCC2CCNCC2)cc1)C(=O)O [Tirofiban] | 2 h
Clc1ccc2nsnc2c1NC1=NCCN1 [Tizanidine] | 2.5 h
Cc1ccc(C(=O)c2ccc(CC(=O)O)n2C)cc1 [Tolmetin] | 2 h
CC[C@@]1(O)C(=O)OCc2c1cc1n(c2=O)Cc2cc3c(CN(C)C)c(O)ccc3nc2-1 [Topotecan] | 2 h
CC(C)OC(=O)CCC/C=C\C[C@@H]1[C@@H](/C=C/[C@@H](O)COc2cccc(C(F)(F)F)c2)[C@H](O)C[C@@H]1O [Travoprost] | 0.75 h
O=c1n(CCCN2CCN(c3cccc(Cl)c3)CC2)nc2ccccn12 [Trazodone] | 1 h
CCCCC[C@H](O)CC[C@@H]1[C@H]2Cc3cccc(OCC(=O)O)c3C[C@H]2C[C@H]1O [Treprostinil] | 2 h
CC1=C(/C=C/C(C)=C/C=C/C(C)=C/C(=O)O)C(C)(C)CCC1 [Tretinoin] | 0.5 h
C[C@]12C=CC(=O)C=C1CC[C@H]1[C@@H]3C[C@@H](O)[C@](O)(C(=O)CO)[C@@]3(C)C[C@H](O)[C@@]12F [Triamcinolone] | 1.466 h
Nc1nc(N)c2nc(-c3ccccc3)c(N)nc2n1 [Triamterene] | 4.25 h
OC(CCN1CCCCC1)(c1ccccc1)C1CCCCC1 (stereo not shown) [Trihexyphenidyl] | 3.3 h
COc1cc2c3cc1Oc1cc(ccc1O)C[C@@H]1c4c(cc(OC)c(O)c4Oc4ccc(cc4)C[C@@H]3N(C)CC2)CC[N+]1(C)C [Tubocurarine] | 1 h
CC(C)[C@@H]1NC(=O)[C@H](CCCCN)NC(=O)[C@@H](Cc2c[nH]c3ccccc23)NC(=O)[C@H](Cc2ccc(O)cc2)NC(=O)[C@@H](NC(=O)[C@H](N)Cc2ccccc2)CSSC[C@@H](C(=O)N[C@@H](Cc2c[nH]c3ccccc23)C(N)=O)NC1=O [Vapreotide] (H-[dF]CY[dW]KVCW-NH2; disulfide 2-7) | 0.5 h
